The target in the test is CDK2/Cyclin E1 (Homo sapiens (Human), UniProt P24941). In words: CDK2/Cyclin E1 HTRF enzyme activity assay. The test is classed as biochemical. The following applies: 1 mM ATP. As for the experimental part:
CDK2/Cyclin E1 enzyme activity assays utilize full-length human CDK2 co-expressed as N-terminal GST-tagged protein with FLAG-Cyclin E1 in a baculovirus expression system (Carna Product Number 04-165). Assays are conducted in white 384-well polystyrene plates in a final reaction volume of 8 μL. CDK2/Cyclin E1 (0.25 nM) is incubated with compounds (40 nL serially diluted in DMSO) in the presence of ATP (50 μM or 1 mM) and 50 nM ULight™-labeled eIF4E-binding protein 1 (THR37/46) peptide (PerkinElmer) in assay buffer (containing 50 mM HEPES pH 7.5, 1 mM EGTA, 10 mM MgCl2, 2 mM DTT, 0.05 mg/ml BSA, and 0.01% Tween 20) for 60 minutes at room temperature. The reactions are stopped by the addition of EDTA and Europium-labeled anti-phospho-4E-BP1 antibody (PerkinElmer), for a final concentration of 15 mM and 1.5 nM, respectively. HTRF signals are read after 1 hour at room temperature on a PHERAstar FS plate reader (BMG Labtech). Data is analyzed with IDBS XLFit and GraphPad Prism 5.0 software using a three or four parameter dose response curve to determine IC50 for each compound.

The text below walks through data of patent publication US11440914B2, “Tricyclic amine compounds as CDK2 inhibitors” (Incyte Corporation, priority 2019, dated 2022).

Molecules are shown by their SMILES. pIC50: −log10 of the molar value. Bounds are passed on as bounds.

In turn, `Cc1nc2c(n1Cc1ccccc1)-c1nc(NC3CCN(S(C)(=O)=O)CC3)ncc1CC2` [Example 8, 1-Benzyl-2-methyl-N-(1-(methylsulfonyl)piperidin-4-yl)-4,5-dihydro-1H-imidazo[4,5-h]quinazolin-8-amine] showed a pIC50 of at least 7.30.

Molecule `Cc1nc2c(n1C(C)C)-c1nc(NC3CCN(S(C)(=O)=O)CC3)ncc1CC2` [Example 27, 1-Isopropyl-2-methyl-N-(1-(methylsulfonyl)piperidin-4-yl)-4,5-dihydro-1H-imidazo[4,5-h]quinazolin-8-amine] showed a pIC50 of at least 7.30.

Molecule `CC(C)c1nc2c(n1C)-c1nc(NC3CCN(S(C)(=O)=O)CC3)ncc1CC2` [Example 18, 2-Isopropyl-1-methyl-N-(1-(methylsulfonyl)piperidin-4-yl)-4,5-dihydro-1H-imidazo[4,5-h]quinazolin-8-amine] gave a pIC50 of at least 7.30.

In turn, `Cc1c2c(nn1-c1c(F)cccc1F)CCc1cnc(NC3CCN(S(C)(=O)=O)CC3)nc1-2` [Example 11, 8-(2,6-Difluorophenyl)-9-methyl-N-(1-(methylsulfonyl)piperidin-4-yl)-6,8-dihydro-5H-pyrazolo[3,4-h]quinazolin-2-amine] showed a pIC50 of at least 7.30.

As to `Cc1nc2c([nH]1)-c1nc(NC3CCN(S(C)(=O)=O)CC3)ncc1CC2` [Example 7, 2-Methyl-N-(1-(methylsulfonyl)piperidin-4-yl)-4,5-dihydro-1H-imidazo[4,5-h]quinazolin-8-amine], the pIC50 is 6.70 to 7.30.

With `Cc1nc2c(n1C)-c1nc(NC3CCN(S(=O)(=O)c4cn[nH]c4)CC3)ncc1CC2` [Example 4, N-(1-((1H-Pyrazol-4-yl)sulfonyl)piperidin-4-yl)-1,2-dimethyl-4,5-dihydro-1H-imidazo[4,5-h]quinazolin-8-amine], the pIC50 was at least 7.30.

Molecule `CS(=O)(=O)N1CCC(Nc2ncc3c(n2)-c2c(ncn2C2CC2)CO3)CC1` [Example 26, 1-Cyclopropyl-N-(1-(methylsulfonyl)piperidin-4-yl)-1,4-dihydroimidazo[4′,5′:4,5]pyrano[3,2-d]pyrimidin-8-amine] showed a pIC50 of at least 7.30.

Take `CC(C)c1c2c(nn1C)CCc1cnc(NC3CCN(S(C)(=O)=O)CC3)nc1-2` [Example 13, 9-Isopropyl-8-methyl-N-(1-(methylsulfonyl)piperidin-4-yl)-6,8-dihydro-5H-pyrazolo[3,4-h]quinazolin-2-amine]: the pIC50 was at least 7.30.

Molecule `Cc1nc2c(n1C1CC1)-c1nc(NC3CCN(S(C)(=O)=O)CC3)ncc1CC2` [Example 19, 1-Cyclopropyl-2-methyl-N-(1-(methylsulfonyl)piperidin-4-yl)-4,5-dihydro-1H-imidazo[4,5-h]quinazolin-8-amine] had a pIC50 of at least 7.30.

Regarding `Cc1nc2c(n1C)-c1nc(N[C@H]3CCN(S(=O)(=O)c4cn(C)cn4)C[C@H]3C)ncc1CC2` [Example 28, 1,2-Dimethyl-N-((3R,4S)-3-methyl-1-((1-methyl-1H-imidazol-4-yl)sulfonyl)piperidin-4-yl)-4,5-dihydro-1H-imidazo[4,5-h]quinazolin-8-amine], the pIC50 is at least 7.30.

As to `Cn1nc2c(c1C1CC1)-c1nc(NC3CCN(S(C)(=O)=O)CC3)ncc1CC2` [Example 12, 9-Cyclopropyl-8-methyl-N-(1-(methylsulfonyl)piperidin-4-yl)-6,8-dihydro-5H-pyrazolo[3,4-h]quinazolin-2-amine], the pIC50 was at least 7.30.

`CS(=O)(=O)N1CCC(Nc2ncc3c(n2)-c2c(nn(CCO)c2C2CC2)CC3)CC1` [Example 15, 2-(9-Cyclopropyl-2-((1-(methylsulfonyl)piperidin-4-yl)amino)-5,6-dihydro-8H-pyrazolo[3,4-h]quinazolin-8-yl)ethan-1-ol] gave a pIC50 of at least 7.30.

Consider `CS(=O)(=O)N1CCC(Nc2ncc3c(n2)-c2c(ncn2C2CC2)CC3)CC1` [Example 20, 1-Cyclopropyl-N-(1-(methylsulfonyl)piperidin-4-yl)-4,5-dihydro-1H-imidazo[4,5-h]quinazolin-8-amine], for which the pIC50 was at least 7.30.

Regarding `Cn1cc2c(n1)COc1cnc(NC3CCN(S(C)(=O)=O)CC3)nc1-2` [Example 10, 8-Methyl-N-(1-(methylsulfonyl)piperidin-4-yl)-6,8-dihydropyrazolo[4′,3′:4,5]pyrano[3,2-d]pyrimidin-2-amine], the pIC50 was 6.30 to 6.70.

Regarding `Cc1nc2c(n1C)-c1nc(N[C@H]3CCN(S(=O)(=O)c4cccc(N5CCN(C)CC5)n4)C[C@H]3C)ncc1CC2` [Example 29, 1,2-Dimethyl-N-((3R,4S)-3-methyl-1-((6-(4-methylpiperazin-1-yl)pyridin-2-yl)sulfonyl)piperidin-4-yl)-4,5-dihydro-1H-imidazo[4,5-h]quinazolin-8-amine], the pIC50 was at least 7.30.

As to `Cc1nc2c(n1C)-c1nc(N[C@H]3CCN(S(=O)(=O)c4ccc(N5CC[C@@H](O)C5)nc4)C[C@H]3C)ncc1CC2` [Example 30, (R)-1-(5-(((3R,4S)-4-((1,2-Dimethyl-4,5-dihydro-1H-imidazo[4,5-h]quinazolin-8-yl)amino)-3-methylpiperidin-1-yl)sulfonyl)pyridin-2-yl)pyrrolidin-3-ol], the pIC50 is at least 7.30.

For `Cc1nc2c(n1C1CC1)-c1nc(N[C@H]3CCN(S(=O)(=O)c4cn(C)cn4)C[C@H]3C)ncc1CC2` [Example 31, 1-Cyclopropyl-2-methyl-N-((3R,4S)-3-methyl-1-((1-methyl-1H-imidazol-4-yl)sulfonyl)piperidin-4-yl)-4,5-dihydro-1H-imidazo[4,5-h]quinazolin-8-amine], the pIC50 is at least 7.30.

`Cc1nc2c(n1C1CC1)-c1nc(NC3CCN(S(C)(=O)=O)CC3)ncc1CC2(C)C` [Example 25, 1-Cyclopropyl-2,4,4-trimethyl-N-(1-(methylsulfonyl)piperidin-4-yl)-4,5-dihydro-1H-imidazo[4,5-h]quinazolin-8-amine] gave a pIC50 of at least 7.30.

Regarding `Cn1cc2c(n1)CCc1cnc(NC3CCN(S(C)(=O)=O)CC3)nc1-2` [Example 9, 8-Methyl-N-(1-(methylsulfonyl)piperidin-4-yl)-6,8-dihydro-5H-pyrazolo[3,4-h]quinazolin-2-amine], the pIC50 is 6.70 to 7.30.

Molecule `Cc1nc(S(=O)(=O)N2CCC(Nc3ncc4c(n3)-c3c(nc(C)n3C)CC4)CC2)cn1C` [Example 6, N-(1-((1,2-Dimethyl-1H-imidazol-4-yl)sulfonyl)piperidin-4-yl)-1,2-dimethyl-4,5-dihydro-1H-imidazo[4,5-h]quinazolin-8-amine] showed a pIC50 of at least 7.30.

For the molecule `CS(=O)(=O)N1CCC(Nc2ncc3c(n2)-c2c(nn(C4CCOC4)c2C2CC2)CC3)CC1` (centres unmarked) [Example 14, 9-Cyclopropyl-N-(1-(methylsulfonyl)piperidin-4-yl)-8-(tetrahydrofuran-3-yl)-6,8-dihydro-5H-pyrazolo[3,4-h]quinazolin-2-amine], the pIC50 was at least 7.30.

As for `CCS(=O)(=O)N1CCC(Nc2ncc3c(n2)-c2c(nc(C)n2C)CC3)CC1` [Example 1, N-(1-(Ethylsulfonyl)piperidin-4-yl)-1,2-dimethyl-4,5-dihydro-1H-imidazo[4,5-h]quinazolin-8-amine], the pIC50 is at least 7.30.

As to `Cc1nc2c(n1C)-c1nc(NC3CCN(S(=O)(=O)c4cccc(C#N)c4)CC3)ncc1CC2` [Example 5, 3-((4-((1,2-Dimethyl-4,5-dihydro-1H-imidazo[4,5-h]quinazolin-8-yl)amino)piperidin-1-yl)sulfonyl)benzonitrile], the pIC50 is at least 7.30.

The molecule `CS(=O)(=O)N1CCC(Nc2ncc3c(n2)-c2c(nn(C4CC4)c2C2CC2)CC3)CC1` [Example 16, 8,9-Dicyclopropyl-N-(1-(methylsulfonyl)piperidin-4-yl)-6,8-dihydro-5H-pyrazolo[3,4-h]quinazolin-2-amine] showed a pIC50 of at least 7.30.

`CS(=O)(=O)N1CCC(Nc2ncc3c(n2)-c2c(nc(Br)n2C2CC2)CC3)CC1` [Example 21, 2-Bromo-1-cyclopropyl-N-(1-(methylsulfonyl)piperidin-4-yl)-4,5-dihydro-1H-imidazo[4,5-h]quinazolin-8-amine] showed a pIC50 of at least 7.30.

Take `Cc1nc2c(n1C1CC1)-c1nc(N[C@H]3CCN(S(=O)(=O)c4cnn(C)c4)C[C@H]3C)ncc1CC2` [Example 32, 1-Cyclopropyl-2-methyl-N-((3R,4S)-3-methyl-1-((1-methyl-1H-pyrazol-4-yl)sulfonyl)piperidin-4-yl)-4,5-dihydro-1H-imidazo[4,5-h]quinazolin-8-amine]: the pIC50 was at least 7.30.

Molecule `Cc1nc2c(n1C)-c1nc(NC3CCN(S(C)(=O)=O)CC3)ncc1CC2` [Example 17, 1,2-Dimethyl-N-(1-(methylsulfonyl)piperidin-4-yl)-4,5-dihydro-1H-imidazo[4,5-h]quinazolin-8-amine] showed a pIC50 of at least 7.30.

The molecule `Cc1nn(C)cc1-c1nc2c(n1C1CC1)-c1nc(NC3CCN(S(C)(=O)=O)CC3)ncc1CC2` [Example 24, 1-Cyclopropyl-2-(1,3-dimethyl-1H-pyrazol-4-yl)-N-(1-(methylsulfonyl)piperidin-4-yl)-4,5-dihydro-1H-imidazo[4,5-h]quinazolin-8-amine] gave a pIC50 of at least 7.30.

`Cc1nc2c(n1C)-c1nc(NC3CCN(S(=O)(=O)c4cnn(C)c4)CC3)ncc1CC2` [Example 3, 1,2-Dimethyl-N-(1-((1-methyl-1H-pyrazol-4-yl)sulfonyl)piperidin-4-yl)-4,5-dihydro-1H-imidazo[4,5-h]quinazolin-8-amine] had a pIC50 of at least 7.30.
